The source made the active and inactive calls. The rule behind the calls is not given here.
Tests used:
[1] = tested on: HCT-116; assay: Induction of apoptosis in human HCT116 cells assessed as viable cell level at 10 ug/ml incubated for 48 hrs by annexin-V/PI staining based flow cyclometry (reference value: 81.8%); assay type: functional
[2] = tested on: HCT-116; assay: Induction of apoptosis in human HCT116 cells assessed as increase in cleaved capse-3 protein level incubated for 48 hrs by Western blot analysis; assay type: functional, cell-based
[3] = tested on: HCT-116; assay: Induction of ROS generation in human HCT116 cells at 10 ug/ml incubated for 48 hrs by DCFH-DA staining based FCM analysis (reference value: 4.44%); assay type: functional
[4] = tested on: DLD-1; assay: Inhibition of colony formation of human DLD1 cells assessed as reduction in clonogenic ability at 5 to 20 ug/ml incubated for 10 to 14 days by crystal violet staining based assay; assay type: functional, cell-based
[5] = tested on: HCT-116; assay: Induction of apoptosis in human HCT116 cells assessed as early apoptotic cell level at 5 ug/ml incubated for 48 hrs by annexin-V/PI staining based flow cyclometry (reference value: 1.84%); assay type: functional
[6] = tested on: DLD-1; assay: Inhibition of cell motility associated protein expression in human DLD1 cells assessed as effect on MMP9 expression at 5 to 20 ug/ml incubated for 48 hrs by Western blot analysis; assay type: functional, cell-based
[7] = tested on: HCT-116; assay: Induction of apoptosis in human HCT116 cells incubated for 48 hrs by annexin-V/PI staining based flow cyclometry; assay type: functional, cell-based
[8] = tested on: HCT-116; assay: Induction of apoptosis in human HCT116 cells assessed as early apoptotic cell level at 10 ug/ml incubated for 48 hrs by annexin-V/PI staining based flow cyclometry (reference value: 1.84%); assay type: functional
[9] = tested on: HCT-116; assay: Induction of ROS generation in human HCT116 cells at 5 to 20 ug/ml incubated for 48 hrs by DCFH-DA staining based FCM analysis; assay type: functional, cell-based
[10] = tested on: HCT-116; assay: Induction of mitochondrial membrane potential loss in human HCT116 cells at 5 ug/ml incubated for 48 hrs by RH123.dye based FCM analysis (reference value: 6.37%); assay type: functional
[11] = Toxicity in BALB/c mouse xenografted with human HCT116 cells assessed as induction of alterations in lung at 10 to 20 mg/kg, ip dosed daily for 21 days starting from 1 day post implantation and measured every three days by hematoxylin and eosin staining based histopathological analysis; assay type: organism-based; details: in vivo
[12] = Toxicity in BALB/c mouse xenografted with human HCT116 cells assessed as induction of alterations in spleen at 10 to 20 mg/kg, ip dosed daily for 21 days starting from 1 day post implantation and measured every three days by hematoxylin and eosin staining based histopathological analysis; assay type: organism-based; details: in vivo
[13] = tested on: HCT-116; assay: Antitumor activity against human HCT116 cells xenografted in BALB/c mouse assessed as inhibition of tumor growth at 10 to 20 mg/kg, ip dosed daily for 21 days starting from 1 day post implantation and measured every three days; assay type: functional, organism-based
[14] = tested on: SW480; assay: Inhibition of colony formation of human SW480 cells assessed as reduction in clonogenic ability at 5 to 20 ug/ml incubated for 10 to 14 days by crystal violet staining based assay; assay type: functional, cell-based
[15] = tested on: HCT-116; assay: Antitumor activity against human HCT116 cells xenografted in BALB/c mouse assessed as reduction in MMP2 positive cells in tumor at 10 to 20 mg/kg, ip dosed daily for 21 days starting from 1 day post implantation and measured every three days by immunohistochemistry analysis; assay type: functional, organism-based
[16] = Toxicity in BALB/c mouse xenografted with human HCT116 cells assessed as induction of alterations in heart at 10 to 20 mg/kg, ip dosed daily for 21 days starting from 1 day post implantation and measured every three days by hematoxylin and eosin staining based histopathological analysis; assay type: organism-based; details: in vivo
[17] = tested on: HCT-116; assay: Induction of apoptosis in human HCT116 cells assessed as necrotic cell level at 20 ug/ml incubated for 48 hrs by annexin-V/PI staining based flow cyclometry (reference value: 4.9%); assay type: functional
[18] = tested on: HCT-116; assay: Induction of ROS generation in human HCT116 cells at 5 ug/ml incubated for 48 hrs by DCFH-DA staining based FCM analysis (reference value: 4.44%); assay type: functional
[19] = tested on: HCT-116; assay: Induction of apoptosis in human HCT116 cells assessed as early apoptotic cell level at 20 ug/ml incubated for 48 hrs by annexin-V/PI staining based flow cyclometry (reference value: 1.84%); assay type: functional
[20] = tested on: HCT-116; assay: Induction of mitochondrial membrane potential loss in human HCT116 cells at 10 ug/ml incubated for 48 hrs by RH123.dye based FCM analysis (reference value: 6.37%); assay type: functional
[21] = tested on: HCT-116; assay: Induction of apoptosis in human HCT116 cells assessed as late apoptotic cell level at 10 ug/ml incubated for 48 hrs by annexin-V/PI staining based flow cyclometry (reference value: 5.11%); assay type: functional
[22] = tested on: HCT-116; assay: Induction of apoptosis in human HCT116 cells assessed as viable cell level at 20 ug/ml incubated for 48 hrs by annexin-V/PI staining based flow cyclometry (reference value: 81.8%); assay type: functional
[23] = tested on: HCT-116; assay: Antitumor activity against human HCT116 cells xenografted in BALB/c mouse assessed as reduction in Ki-67 positive cells in tumor at 10 to 20 mg/kg, ip dosed daily for 21 days starting from 1 day post implantation and measured every three days by immunohistochemistry analysis; assay type: functional, organism-based
[24] = tested on: DLD-1; assay: Inhibition of cell migration in human DLD1 cells at 5 to 20 ug/ml incubated for 48 hrs by Transwell migration assay; assay type: functional, cell-based
[25] = tested on: HCT-116; assay: Induction of apoptosis in human HCT116 cells assessed as late apoptotic cell level at 5 ug/ml incubated for 48 hrs by annexin-V/PI staining based flow cyclometry (reference value: 5.11%); assay type: functional
[26] = tested on: DLD-1; assay: Inhibition of cell motility associated protein expression in human DLD1 cells assessed as effect on MMP2 expression at 5 to 20 ug/ml incubated for 48 hrs by Western blot analysis; assay type: functional, cell-based
[27] = tested on: HCT-116; assay: Induction of apoptosis in human HCT116 cells assessed as reduction in Bcl2 protein expression incubated for 48 hrs by Western blot analysis; assay type: functional, cell-based
[28] = Toxicity in BALB/c mouse xenografted with human HCT116 cells assessed as induction of alterations in liver at 10 to 20 mg/kg, ip dosed daily for 21 days starting from 1 day post implantation and measured every three days by hematoxylin and eosin staining based histopathological analysis; assay type: organism-based; details: in vivo
[29] = Toxicity in BALB/c mouse xenografted with human HCT116 cells assessed as effect on body weight at 10 to 20 mg/kg, ip dosed daily for 21 days starting from 1 day post implantation and measured every three days; assay type: organism-based; details: in vivo
[30] = tested on: HCT-116; assay: Induction of ROS generation in human HCT116 cells at 20 ug/ml incubated for 48 hrs by DCFH-DA staining based FCM analysis (reference value: 4.44%); assay type: functional
[31] = tested on: HCT-116; assay: Induction of mitochondrial membrane potential loss in human HCT116 cells at 20 ug/ml incubated for 48 hrs by RH123.dye based FCM analysis (reference value: 6.37%); assay type: functional
[32] = tested on: DLD-1; assay: Inhibition of cell invasion in human DLD1 cells at 5 to 20 ug/ml incubated for 48 hrs by crystal violet staining based inverted microscopy; assay type: functional
[33] = tested on: HCT-116; assay: Induction of apoptosis in human HCT116 cells assessed as necrotic cell level at 10 ug/ml incubated for 48 hrs by annexin-V/PI staining based flow cyclometry (reference value: 4.9%); assay type: functional
[34] = tested on: DLD-1; assay: Inhibition of cell motility associated protein expression in human DLD1 cells assessed as effect on TIMP2 expression at 5 to 20 ug/ml incubated for 48 hrs by Western blot analysis; assay type: functional, cell-based
[35] = tested on: HCT-116; assay: Induction of apoptosis in human HCT116 cells assessed as increase in Bax protein expression incubated for 48 hrs by Western blot analysis; assay type: functional, cell-based
[36] = tested on: HCT-116; assay: Induction of apoptosis in human HCT116 cells assessed as necrotic cell level at 5 ug/ml incubated for 48 hrs by annexin-V/PI staining based flow cyclometry (reference value: 4.9%); assay type: functional
[37] = tested on: HCT-116; assay: Induction of apoptosis in human HCT116 cells assessed as late apoptotic cell level at 20 ug/ml incubated for 48 hrs by annexin-V/PI staining based flow cyclometry (reference value: 5.11%); assay type: functional
[38] = Toxicity in BALB/c mouse xenografted with human HCT116 cells assessed as induction of alterations in kidney at 10 to 20 mg/kg, ip dosed daily for 21 days starting from 1 day post implantation and measured every three days by hematoxylin and eosin staining based histopathological analysis; assay type: organism-based; details: in vivo
[39] = tested on: HCT-116; assay: Induction of apoptosis in human HCT116 cells assessed as viable cell level at 5 ug/ml incubated for 48 hrs by annexin-V/PI staining based flow cyclometry (reference value: 81.8%); assay type: functional
[40] = tested on: HCT-116; assay: Induction of mitochondrial membrane potential loss in human HCT116 cells at 5 to 20 ug/ml incubated for 48 hrs by RH123.dye based FCM analysis; assay type: functional, cell-based
[41] = tested on: HCT-116; assay: Inhibition of colony formation of human HCT116 cells assessed as reduction in clonogenic ability at 5 to 20 ug/ml incubated for 10 to 14 days by crystal violet staining based assay; assay type: functional, cell-based

## C=C(C)[C@@H]1CC[C@]2(C(=O)O)CC[C@]3(C)[C@H](CC[C@@H]4[C@@]5(C)CC[C@H](O)C(C)(C)[C@@H]5CC[C@]43C)[C@@H]12 [BETULINIC ACID]
[1]
  Activity: 73.8%
[2]
  Activity: Dose-dependent effect
[3]
  Activity: 13.6%
[4]
  inhibition: Active
[5]
  Activity: 1.63%
[6]
  inhibition: Active
[7]
  Activity: Dose-dependent effect
[8]
  Activity: 2.33%
[9]
  Activity: Dose-dependent effect
[10]
  Activity: 17.2%
[11]
  Activity: Non-Toxic
[12]
  Activity: Non-Toxic
[13]
  TGI: Active
[14]
  inhibition: Active
[15]
  inhibition: Active
[16]
  Activity: Non-Toxic
[17]
  Activity: 14.5%
[18]
  Activity: 9.58%
[19]
  Activity: 6.72%
[20]
  Activity: 19.5%
[21]
  Activity: 13%
[22]
  Activity: 53.5%
[23]
  inhibition: Active
[24]
  Activity: Active
[25]
  Activity: 11.5%
[26]
  inhibition: Active
[27]
  Activity: Dose-dependent effect
[28]
  Activity: Non-Toxic
[29]
  Activity: Non-Toxic
[30]
  Activity: 18.9%
[31]
  Activity: 21.3%
[32]
  Activity: Active
[33]
  Activity: 10.9%
[34]
  inhibition: Active
[35]
  Activity: Dose-dependent effect
[36]
  Activity: 7.94%
[37]
  Activity: 25.2%
[38]
  Activity: Non-Toxic
[39]
  Activity: 79%
[40]
  Activity: Active
[41]
  inhibition: Active

From ChEMBL document CHEMBL4402509, “Betulinic acid induces apoptosis and inhibits metastasis of human colorectal cancer cells in vitro and in vivo” (Bioorg Med Chem, 2019)
